Numbers after ± are expanded uncertainties.
What was measured:
[1] = refractive index (Na D-line) (dimensionless); settings: 298.1 K; 101.33 kPa; Liquid; Standard Abbe refractometry
[2] = for vapor or sublimation pressure: Liquid

Row | Compound | refractive index [1] | vapor or sublimation pressure ([2]; 468.96 K) | vapor or sublimation pressure ([2]; 473.96 K) | vapor or sublimation pressure ([2]; 478.65 K) | vapor or sublimation pressure ([2]; 485.91 K) | vapor or sublimation pressure ([2]; 488.5 K) | vapor or sublimation pressure ([2]; 490.22 K) | vapor or sublimation pressure ([2]; 496.8 K) | vapor or sublimation pressure ([2]; 500.18 K) | vapor or sublimation pressure ([2]; 505.08 K) | vapor or sublimation pressure ([2]; 510.7 K) | vapor or sublimation pressure ([2]; 519.03 K) | vapor or sublimation pressure ([2]; 525.3 K) | vapor or sublimation pressure ([2]; 532.77 K) | Normal melting temperature ([2]; Crystal, visual observation)
1 | CCCCOC(=O)CCCCCCCCC(=O)OCCCC [dibutyl decanedioate] | 1.442 ± 0.0007 | 0.666 ± 0.044 kPa | 0.818 ± 0.05 kPa | 1.036 ± 0.059 kPa | 1.457 ± 0.078 kPa | 1.515 ± 0.081 kPa | 1.762 ± 0.093 kPa | 2.286 ± 0.12 kPa | 2.647 ± 0.14 kPa | 3.149 ± 0.16 kPa | 4.078 ± 0.21 kPa | 5.29 ± 0.27 kPa | 7.044 ± 0.35 kPa | 9.161 ± 0.46 kPa | 
2 | O=C1C=CC(=O)O1 [maleic anhydride] |  |  |  |  |  |  |  |  |  |  |  |  |  |  | 52.5 ± 0.5 °C

— the NIST ThermoML archive (doi:10.1016/j.fluid.2008.08.001)
